The source made the active and inactive calls. No cut-off for these calls is given here.

As usually defined, the Ki is the equilibrium dissociation constant of an inhibitor or competing ligand from its target. As a reminder, the IC50 is the concentration that gives 50% inhibition.

For assay [1], the system named is Rattus norvegicus. Description: Antidiabetic activity in NIDDM Wistar rat model assessed as reduction blood glucose level at 50 mg/kg, po measured after 1 hr post dose by glucometry. The assay is classed as functional, organism-based. Also noted: dose 50 mg/kg.
For assay [2], the target named is T1, Tyrosine-protein phosphatase non-receptor type 1 (Homo sapiens, UniProt P18031).
T1 sequence (P18031 whole entry): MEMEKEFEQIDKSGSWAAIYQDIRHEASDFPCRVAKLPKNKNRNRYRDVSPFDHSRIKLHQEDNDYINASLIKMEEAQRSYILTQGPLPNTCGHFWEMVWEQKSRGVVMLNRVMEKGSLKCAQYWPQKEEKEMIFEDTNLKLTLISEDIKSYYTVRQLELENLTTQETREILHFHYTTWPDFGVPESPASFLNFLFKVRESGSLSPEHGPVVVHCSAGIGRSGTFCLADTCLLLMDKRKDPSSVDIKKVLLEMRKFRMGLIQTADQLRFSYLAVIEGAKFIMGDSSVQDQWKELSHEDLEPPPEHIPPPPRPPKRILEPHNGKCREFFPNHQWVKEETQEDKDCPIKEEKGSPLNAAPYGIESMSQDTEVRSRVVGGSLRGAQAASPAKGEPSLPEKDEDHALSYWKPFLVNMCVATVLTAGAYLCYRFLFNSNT
Description: Mixed-type inhibition of purified human GST-tagged PTP-1B using p-nitrophenylphosphate as substrate by double-reciprocal plot method.

Assay [3] deals with T2, Tyrosine-protein phosphatase non-receptor type 2 (Homo sapiens, UniProt P17706).
T2 sequence (P17706 whole entry): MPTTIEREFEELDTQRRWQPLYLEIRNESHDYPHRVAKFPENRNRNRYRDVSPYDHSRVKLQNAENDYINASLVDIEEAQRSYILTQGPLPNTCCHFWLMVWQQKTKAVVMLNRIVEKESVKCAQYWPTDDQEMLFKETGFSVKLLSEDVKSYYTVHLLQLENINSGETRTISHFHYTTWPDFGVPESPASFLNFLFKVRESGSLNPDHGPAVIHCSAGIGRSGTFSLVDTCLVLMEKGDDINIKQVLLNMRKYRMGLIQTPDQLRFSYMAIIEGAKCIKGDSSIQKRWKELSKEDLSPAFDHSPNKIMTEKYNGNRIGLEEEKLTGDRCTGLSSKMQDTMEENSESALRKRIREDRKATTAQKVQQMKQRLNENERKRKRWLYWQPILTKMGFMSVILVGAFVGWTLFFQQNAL
Description: Inhibition of TC-PTP (unknown origin) using p-nitrophenylphosphate as substrate by spectrophotometry.

For assay [4], the target named is T3, Low molecular weight phosphotyrosine protein phosphatase (Homo sapiens, UniProt P24666).
T3 sequence (P24666 whole entry): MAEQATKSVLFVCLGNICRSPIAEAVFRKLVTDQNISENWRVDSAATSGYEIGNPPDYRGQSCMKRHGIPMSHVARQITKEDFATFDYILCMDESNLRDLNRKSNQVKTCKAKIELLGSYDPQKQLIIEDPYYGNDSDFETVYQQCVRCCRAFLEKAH
As to the kind of experiment: Inhibition of human LMW-PTP IF2 using p-nitrophenylphosphate as substrate by spectrophotometry.

Assay [5] concerns the target T3, Low molecular weight phosphotyrosine protein phosphatase. Description: Inhibition of human LMW-PTP IF1 using p-nitrophenylphosphate as substrate by spectrophotometry.
Assay [6] has as its target T1, Tyrosine-protein phosphatase non-receptor type 1. As to the kind of experiment: Inhibition of purified human GST-tagged PTP-1B using p-nitrophenylphosphate as substrate by spectrophotometry.
Assay [7] relates to Rattus norvegicus. Description: Antidiabetic activity in NIDDM Wistar rat model assessed as reduction blood glucose level at 50 mg/kg, po measured after 3 hrs post dose by glucometry. Type of assay: functional.
The target of assay [8] is T1, Tyrosine-protein phosphatase non-receptor type 1. As to the kind of experiment: Non-competitive inhibition of purified human GST-tagged PTP-1B using p-nitrophenylphosphate as substrate by double-reciprocal plot method.

On to `CC1(C)CC[C@]2(C(=O)O)CC[C@]3(C)C(=CC[C@@H]4[C@@]5(C)CC[C@H](OC(=O)/C=C/c6ccccc6)C(C)(C)[C@@H]5CC[C@]43C)[C@@H]2C1`, for which the result in the assay with Rattus norvegicus [1] and in the assay on Rattus norvegicus [7] was Active. Moreover, the affinity in assay [2], expressed as Ki, was 2.1 µM. Further, the IC50 in assay [3] was determined as 11.8 µM; in assay [4] it was 12.3 µM; in assay [5], 6.9 µM; in assay [6], 6.1 µM.

Take `C/C=C/C(=O)O[C@H]1CC[C@]2(C)[C@H]3CC=C4[C@@H]5CC(C)(C)CC[C@]5(C(=O)O)CC[C@@]4(C)[C@]3(C)CC[C@H]2C1(C)C`: half-maximal inhibition in assay [6] (IC50) required 17.8 µM.

Turning to `CC1(C)CC[C@]2(C(=O)O)CC[C@]3(C)C(=CC[C@@H]4[C@@]5(C)CC[C@H](OC(=O)c6ccccc6)C(C)(C)[C@@H]5CC[C@]43C)[C@@H]2C1`, in assay [6], inhibition was half-maximal at 16.2 µM (IC50).

In assay [6], `CO[C@H]1CC[C@]2(C)[C@H]3CC=C4[C@@H]5CC(C)(C)CC[C@]5(C(=O)O)CC[C@@]4(C)[C@]3(C)CC[C@H]2C1(C)C` showed an IC50 of 8.6 µM.

In the case of `CCCO[C@H]1CC[C@]2(C)[C@H]3CC=C4[C@@H]5CC(C)(C)CC[C@]5(C(=O)O)CC[C@@]4(C)[C@]3(C)CC[C@H]2C1(C)C`, the IC50 in assay [6] was found to be 36.5 µM.

Turning to `CCO[C@H]1CC[C@]2(C)[C@H]3CC=C4[C@@H]5CC(C)(C)CC[C@]5(C(=O)O)CC[C@@]4(C)[C@]3(C)CC[C@H]2C1(C)C`, the result with Rattus norvegicus [1] was inactive. In addition, the IC50 came out at 26 µM in assay [3], 47.4 µM in assay [4], 16.4 µM in assay [5] and 5.3 µM in assay [6]. Moreover, the Activity in the assay with Rattus norvegicus [7] was greater than 20%. The Ki in assay [8] was 4.8 µM.

Turning to `CC(=O)O[C@H]1CC[C@]2(C)[C@H]3CC=C4[C@@H]5CC(C)(C)CC[C@]5(C(=O)O)CC[C@@]4(C)[C@]3(C)CC[C@H]2C1(C)C` [ACETYL OLEANOLIC ACID], it took 21.5 µM to reach half-maximal inhibition in assay [6] (IC50).

These data come from ChEMBL document CHEMBL3352127, “Synthesis of oleanolic acid derivatives: In vitro, in vivo and in silico studies for PTP-1B inhibition” (Eur J Med Chem, 2014).
